Experimental data from patent EP0802730B1, “PESTICIDAL COMPOUNDS” (BTG INTERNATIONAL LIMITED, priority 1995, dated 1996).
Converted amounts (≈) assume the structure as drawn. Like-named read-outs stand apart in the source and are kept apart here. Marks after values point to notes of the source that are not given here.

Assays:
Type in all cases: in vivo
[1] = tested on: Houseflies (MD) (Musca domestica); conditions: for MD LD50 (µg/insect): Tables 10, 13, 14, NA = lack of detectable activity; for MD (LD50): topical 1 µl drop in acetone on female flies, kill assessed 24 and 48 hours
Method: Female flies were treated on the thorax with a one microlitre drop of test compound dissolved in acetone. Two replicates of 15 flies were used at each dose rate and 6 dose rates were used per compound under test. After treatment, the flies were maintained at a temperature of 20° ± 1°C and kill was assessed 24 and 48 hours after treatment. LD50 values were calculated in micrograms of test compound per fly (see Sawicki et al., Bulletin of the World Health Organisation, 35, 893 (1966) and Sawicki et al., Entomologia and Exp. Appli 10, 253, (1967).

[2] = tested on: Mustard beetles (PC) (Phaedon cochleariae Fab); conditions: for PC LD50 (µg/insect): Tables 10, 13, 14; for PC LD50 (µg/insect) / PC (LD50): NA = lack of detectable activity; for PC (LD50): 1 µl acetone drop applied ventrally to adults, kill at 48 hours
Method: A one microlitre drop of an acetone solution of the test compound was applied ventrally to adult mustard beetles using a micro drop applicator. The treated insects were maintained for 48 hours after which time kill was assessed. Two replicates each of 20 to 25 mustard beetles were used at each dose level and 5 dose levels were treated comparably. LD50 values were calculated as for houseflies.

[3] = tested on: Mites (TU) (Tetranychus urticae), susceptible strain (GSS); assay: Mite immersion test, susceptible strain GSS
Method: 25 adult female mites were immersed in 35 µl of a solution of the test compound in a 1:4 acetone-water mixture for 30 seconds. The treated insects were maintained at 21° ± 2°C and kill was assessed 72 hours after treatment. […] Three replicates of 25 mites each were used at each dose rate and 5 or 6 dose rates were used per compound under test. LC50 values were calculated in ppm of the solution of the test compound per insect. The test was carried out using a susceptible strain of mites (GSS) supplied by Schering, AG, Berlin.

[4] = tested on: Whitefly (BT) (Bemisia tabaci), susceptible strain (SUD-S); assay: Whitefly residual film vial test, susceptible strain SUD-S
Method: Acetone solutions (0.100 ml) of the test compounds were placed in 10 ml glass vials and evaporated with rotation to deposit a film of the compound. Thirty adult whiteflies were placed inside the vial, then after 60 minutes, the treated insects were transferred onto untreated cotton leaf discs which were kept moist on a bed of agar gel. The temperature was maintained at 25°C and mortality assessed after 48 hours. Three replicates were used at each of 5 to 7 dose levels per compound.

[5] = tested on: Myzus persicae, susceptible strain (US1L); assay: Aphid dip test, susceptible strain; conditions: read-out: MP % kill 100 ppm
Method: Activity against resistant (R) and susceptible (S) strains of aphid (Myzus persicae) was assessed using the following method.
Entrapment rings of fluon were painted halfway up the inside of 4 cm lengths of glass tubing (1.5 cm diameter), and squares of insect-proof gauze were attached to one end of each tube by elastic bands. Fifteen apterous adults were then gently transferred into the tubes using a sable-hair brush, and the tube sealed with a second gauze square.
Tubes containing aphids were dipped into insecticide solutions for 10 seconds, dried on blotting paper, and then inverted and tapped to cause treated aphids to fall to the unimmersed end of each tube. Handling mortality (usually zero or very slight) was scored after 1 hour, when aphids were transferred onto chinese cabbage leaf-discs (35 mm diameter) on an agar bed (25 mm in depth) in disposible plastic containers (30 mm high) and confined by applying a ring of fluon to the exposed lip of the container. Containers were store upright, without lids, in a constant environment facility maintained at 25°C under continuous room lighting. Mortality was assessed at 24, 48 and 72 hours. Two replicates of 15 aphids each were used at each dose rate and 5 or 6 dose rates were used per compound under test.
The test was carried out using a susceptible strain of aphids (US1L) collected in the field in East Anglia, UK and an extremely resistant strain of aphids (794Jz) (R3 esterase, sensitive AChE) collected from glasshouses in the UK.
The values given are % mortality corrected for control data. The control comprised the test solution without active ingredient.

[6] = 72 h, Tables 10, 13, 14, susceptible strain, NA = lack of detectable activity, read-out: TU LC50 (ppm/insect)
[7] = 48 h, Tables 10, 13, 14, susceptible strain, NA = lack of detectable activity, read-out: BT LC50 (ppm/insect)
[8] = ppm solution of test compound, 30 seconds immersion, kill at 72 hours, read-out: TU(GSS) (LC50)
[9] = ppm solution of test compound, 60 minutes film exposure, mortality after 48 hours, read-out: BT(SUD-S) (LC50)

| Compound | PC LD50 (µg/insect) [2] | LC50 [3, 6] [µg/mL] | LC50 [4, 7] [µg/mL] | also measured |
| --- | --- | --- | --- | --- |
| C=CC1(C2=C(O)C(=O)c3ccccc3C2=O)CCCCC1 [Example 27, 2-(1'-ethenecyclohexyl)-3-hydroxy-naphthalene-1,4-dione] | 4.7 µg/insect | ~80 (≈ 283 µM) | 0.9 (≈ 3.19 µM) | MD LD50 (µg/insect) [1]: 6.0 µg/insect |
| CC(C)(C)C=CCCCC1=C(O)C(=O)c2ccccc2C1=O [Example 43, 2-(6,6-dimethylhep-4-enyl)-3-hydroxy-naphthalene-1,4-dione] | – | 11.5 (≈ 38.5 µM) | ~60 (≈ 201 µM) | mortality at 100 ppm [5]: ~100% |
| CCCCCCCCCCCCC1=C(O)C(=O)c2ccccc2C1=O [-(CH2)11CH3, reference compound] | – | < 60 | > 100 | mortality at 100 ppm [5]: 0% |
| C=CC1(C2=C(O)C(=O)c3ccccc3C2=O)CCCC1 [Example 30] | <20 µg/insect | 6 (≈ 22.4 µM) | ~50 (≈ 186 µM) | MD LD50 (µg/insect) [1]: 15 µg/insect |
| C=CC(C)(C)C1=C(O)C(=NOC)c2ccccc2C1=O [Example 15] | – | – | – | PC % Kill at 20 µg/insect ([2]; mustard beetle, in vivo, topical or ocular, 48 h): 35% *; mortality at 1000 ppm ([4]; 48 h, read-out: BT(SUD-S) % Kill at 1000 ppm solution of test compound): 97% |
| CCCCCCCCCCCC1=C(O)C(=O)c2ccccc2C1=O [-(CH2)10CH3, reference compound] | c0.4 µg/insect | 1.4 (≈ 4.26 µM) | > 100 | – |
| C=CC(C)(C)CCC1=C(O)C(=O)c2ccccc2C1=O [Example 50] | – | 6.5 (≈ 24 µM) | 16 (≈ 59.2 µM) | – |
| C=CC(C)(C)C1=C(O)C(OC)(OC)c2ccccc2C1=O [Example 14, 1,1-dimethoxy-2-hydroxy-3-(1,1-dimethylprop-2-enyl)-naphthalene-4-one] | – | – | – | MD (LD50) [1]: c. 2.5 µg/insect; PC (LD50) [2]: c. 6.0 µg/insect; LC50 [3, 8]: ~800 µg/mL (≈ 2770 µM) |
| CC(C)(C)CCC1=C(O)C(=O)c2ccccc2C1=O [Example 36, 2-(3,3-dimethylbutyl)-3-hydroxy-naphthalene-1,4-dione] | 1.3 µg/insect | 36 (≈ 139 µM) | ~7 (≈ 27.1 µM) | mortality at 100 ppm [5]: ~24% |
| CCCC1=C(O)C(=O)c2ccccc2C1=O [-(CH2)2CH3, reference compound] | c10 µg/insect | ~1000 (≈ 4620 µM) | 80 (≈ 370 µM) | – |
| C=CC(C)(C)C1=C(OC(=O)CCCC)C(=O)c2ccccc2C1=O [Example 6] | – | – | – | MD (LD50) [1]: c. 2.0 µg/insect; PC (LD50) [2]: 2.1 µg/insect; LC50 [3, 8]: 27 µg/mL (≈ 82.7 µM); LC50 [4, 9]: 16 µg/mL (≈ 49 µM) |
| C=CC(C)(C)C1=C(OC)C(=O)c2ccccc2C1=O [Example 12, 2-(1,1-dimethylprop-2-enyl)-3-methoxy-naphthalene-1,4-dione] | – | – | – | MD (LD50) [1]: > 20 µg/insect; PC (LD50) [2]: c. 12.0 µg/insect |
| CCCCC1=C(O)C(=O)c2ccccc2C1=O [-(CH2)3CH3, reference compound] | c5 µg/insect | 65 (≈ 282 µM) | 13 (≈ 56.5 µM) | MD LD50 (µg/insect) [1]: c10 µg/insect |
| CCC1(C2=C(O)C(=O)c3ccccc3C2=O)CCCCC1 [Example 26, 2-(1'-ethylcyclohexyl)-3-hydroxy-naphthalene-1,4-dione] | 2.9 µg/insect | > 100 | 2.9 (≈ 10.2 µM) | MD LD50 (µg/insect) [1]: 13 µg/insect |
| C=CC(C)(C)C1=C(OC(=O)CC)C(=O)c2ccccc2C1=O [Example 4] | – | – | – | MD (LD50) [1]: 8.2 µg/insect; PC (LD50) [2]: 3.9 µg/insect; LC50 [3, 8]: 18 µg/mL (≈ 60.3 µM); LC50 [4, 9]: 5.3 µg/mL (≈ 17.8 µM) |
| CC(C)(C)CCCC1=C(O)C(=O)c2ccccc2C1=O [Example 37, 2-(4,4-dimethylpentyl)-3-hydroxy-naphthalene-1,4-dione] | – | 2.9 (≈ 10.6 µM) | 16 (≈ 58.7 µM) | mortality at 100 ppm [5]: ~70% |
